Tests used:
[1] = tested on: accelerated phase chronic myelogenous leukemia; settings: human, in vivo
Protocol: Description. […] The patient was resistant to interferon alpha, BCNU, HU at the time of initiation of induction with homoharringtonine (2.5 mg/m^2/day, 15 days). After white blood cell and platelet counts recovery, ten further 7-day cycles of homoharringtonine combined with cytarabine (Ara-C) 10 mg (flat dose) daily, were administered. An average of 7 days of daily Ara-C per 28-day cycle was used (see treatment plan of FIG. 1).

[2] = tested on: chronic phase of Philadelphia positive chronic myelogenous leukemia; experiment: Case of patient #15 successively resistant to five drugs including STI571, treated by homoharringtonine; type: in vivo, human
[3] = tested on: K562-r; experiment: MTS cell proliferation assay, median effect combination analysis with STI571; type: cell-based, human; settings: K562-r (STI571-resistant); STI571:HHT = 27.3:1
Excerpt: (§1) The combination ratios are selected, where possible, such that both drugs are in a range relevant to their achievable serum concentrations. STI571-sensitive and resistant cells are exposed to doubling dilutions of homoharringtonine over a wide range (Table 1). […] The effects of homoharringtonine treatments are plotted and analyzed to produce computed estimations of the relative responses to either homoharringtonine alone or in combination. In this way it is possible to detect synergistic, additive or antagonistic effects. Duplicate or triplicate independent experiments are set up for each cell line/drug combination. In each case the analysis generates plots of CI (Combination Index) versus effect. […] These values are most relevant at high effect levels, as this is the desired physiological level of effect. Subsequently the CI curves can be represented as the average CI values at effects 0.5, 0.75 and 0.9 (IC50, IC75 and IC90 respectively). Cell proliferation is monitored with the CellTiter 96® AQucous One Solution Cell Proliferation Assay (Promega, UK). […] Proliferation is assessed on aliquots taken daily from days 1 to 4 in order to establish the most representative time-point. Replicate experiments are thereafter set up by plating the cells directly into 96-well plates and staining with MTS on day 3. A minimum of 95% viability as assessed by Trypan blue staining is required for the initiation of any experiment. […] Blank wells contained 100 μL RF10. All samples are plated in quadruplicate. […] On day 3, 20 μL of MTS reagent is added to each well, and the plate is re-incubated for a further 3–4 hours for stain development. At the end of this period, the plates are gently agitated and the absorbance of each well at 490 nm is recorded on an automatic microplate reader (MRX, Dynatech, Billingshurst, UK). Averaged blank values (no cells, no drug) are subtracted from sample values, and these corrected A490 values are calculated as percentages of the control cultures grown in the absence of drug. Error bars indicate the range defined in duplicate experiments, and significant differences considered as those which fell outside the region of overlap in the ranges of the means. Such an approach is supported by the non-parametric Mann-Whitney U test.

[4] = tested on: K562-s; experiment: as above; type: cell-based, human; settings: STI571:HHT = 27.3:1
Excerpt: as §1

[5] = tested on: LAMA84-r; experiment: as above; type: cell-based, human; settings: LAMA84-r (STI571-resistant); STI571:HHT = 27.3:1
Excerpt: as §1

[6] = tested on: LAMA84-s; experiment: as above; type: cell-based, human; settings: STI571:HHT = 27.3:1
Excerpt: as §1

[7] = in vivo; cited from earlier work
[8] = tested on: Chronic myelogenous leukemia (CML); settings: in vivo; cited from earlier work

In the case of Nc1ccn([C@@H]2O[C@H](CO)[C@@H](O)[C@@H]2O)c(=O)n1 [cytarabine], the “adverse events attributable to the agent” value [1] is reported as “Mouth ulceration and alveolar hemorrhage”.

For COC(=O)[C@H](CCSC)NC(=O)c1ccc(NC[C@@H](N)CS)cc1-c1ccccc1 [farnesyl transferase inhibitor], the peripheral blood response ([2]; patient #15, after first relapse under interferon alpha) was “transient peripheral blood response”.

In the case of COC(=O)C[C@](O)(CCCC(C)(C)O)C(=O)O[C@@H]1C(OC)=C[C@]23CCCN2CCc2cc4c(cc2[C@H]13)OCO4 [homoharringtonine], the WBC count ([2]; patient #15, day 17, HHT 2.5 mg/m^2/day, 14 days, 31,000/μL at initiation) is reported as 2,400 /μL, the “adverse events attributable to the agent” value [1] is reported as “no non-hematologic adverse events attributable to homoharringtonine” and the “Average CI (Combination index) at FA values of 0.5, 0.75 and 0.9” value (from here on “Average CI (Combination index)”) [3] is reported as 0.6. The “Average CI (Combination index)” value [4] was 1.1, the “Average CI (Combination index)” value [5] was 0.6 and the “Average CI (Combination index)” value [6] was 1.2. The “Drug concentration in serum” value [7] was 36.6 nM.

In the case of interferon alpha, the median survival [8] is listed as “about 7 years”.
